From PubChem BioAssay (NCI)
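Interpolation was linear, between the two tested concentrations surrounding the appropriate level; five concentrations were tested over 48 hours in 96-well plates. The concentration for 50% growth inhibition is given as GI50. TGI: total growth inhibition.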

Columns and labels:
Assay in all cases: DTP human tumour cell line panel, 48 h
HL-60(TB) leukemia = tested on: HL-60(TB) leukemia
K-562 leukemia = tested on: K-562 leukemia
NCI-H460 lung = tested on: NCI-H460 lung
OVCAR-8 ovarian = tested on: OVCAR-8 ovarian
SK-MEL-2 melanoma = tested on: SK-MEL-2 melanoma
SN12C renal = tested on: SN12C renal
SR leukemia = tested on: SR leukemia

SMILES | TGI (HL-60(TB) leukemia) [µM] | TGI (K-562 leukemia) [µM] | TGI (NCI-H460 lung) [µM] | TGI (OVCAR-8 ovarian) [µM] | TGI (SK-MEL-2 melanoma) [µM] | TGI (SN12C renal) [µM] | TGI (SR leukemia) [µM] | GI50 (HL-60(TB) leukemia) [µM] | GI50 (NCI-H460 lung) [µM] | GI50 (OVCAR-8 ovarian) [µM] | GI50 (SR leukemia) [µM] | GI50 (SK-MEL-2 melanoma) [µM] | GI50 (SN12C renal) [µM] | GI50 (K-562 leukemia) [µM]
CCOC(=O)c1cc(/C=C/C(C)=C/C(=O)OC)oc1-c1ccccc1 | > 100 | > 100 | > 100 | > 100 | > 100 | > 100 |  |  |  |  |  |  |  | 
Cc1nc2ccccc2c(=O)n1/N=C(\N=Nc1cc(Cl)ccc1Cl)c1cccc(-c2ccco2)c1 | > 10 | > 10 | > 100 | > 100 | > 100 | > 100 |  |  |  |  |  |  |  | 
Cc1ccc(C2CC(c3ccc([N+](=O)[O-])cc3)=Nc3ccccc3S2)cc1 (stereo not drawn) | 43.4 | 41.5 | > 100 | 72.3 | 95 | > 100 |  |  |  |  |  |  |  | 
O=C(CC(=O)c1ccc([N+](=O)[O-])cc1)C(=O)Nc1nccs1 | > 100 | > 100 | > 100 | > 100 | > 100 | > 100 | > 100 |  |  |  |  |  |  | 
O=S1CSCS1 (stereo not drawn) | > 100 | > 100 |  | > 100 | > 100 | > 100 | > 100 |  |  |  |  |  |  | 
O=C(c1ccccc1)C(c1ccccc1)C1(O)C(=O)Nc2ccccc21 (stereo not drawn) | > 100 | > 100 | > 100 | > 100 | > 100 | > 100 |  |  |  |  |  |  |  | 
CC1(C)C(c2ccccc2)C12CCC1(C2=O)C(c2ccccc2)C1(C)C (stereo not drawn) | 37.4 | 38.4 |  | > 100 | 37 | 73 |  |  |  |  |  |  |  | 
O=C(O)C1CCc2nnc(-c3ccccc3)n21 (stereo not drawn) | > 100 | > 100 | > 100 | > 100 | > 100 | > 100 | > 100 |  |  |  |  |  |  | 
O=C1c2ccccc2C(=O)C2C1C1C(=O)c3ccccc3C(=O)C21 (stereo not drawn) | > 100 | > 100 | > 100 | > 100 | > 100 | > 100 |  |  |  |  |  |  |  | 
COc1c(C2=NC(C(C)C)CO2)ccc2ccccc12 (stereo not drawn) | 42.9 | > 100 | > 100 | > 100 | > 100 | > 100 |  |  |  |  |  |  |  | 
Cc1cc(=O)n(-c2ccccc2)c(=O)o1 | > 100 | > 100 | > 100 |  | > 100 | > 100 | > 100 |  |  |  |  |  |  | 
CCCN(CCCN)/[N+]([O-])=N\O | > 100 | > 100 | > 100 | > 100 | > 100 | > 100 | > 100 |  |  |  |  |  |  | 
N=CCCN(CCC=N)c1ccc(/C=C2\CN(NC(=O)c3ccc(Cl)cc3)C(c3ccccc3)=N2)cc1 | > 100 | > 100 | > 100 | > 100 | > 100 | > 100 |  |  |  |  |  |  |  | 
NC(N)=NS(=O)(=O)c1ccc(Nc2c3ccccc3nc3c(C(=O)N4CCN(CCO)CC4)cccc23)cc1 | > 100 | > 100 | > 100 | > 100 | > 100 | > 100 | > 100 |  |  |  |  |  |  | 
Cc1ccc(NC(=O)CC/C(CC(=O)C(C)(C)C)=N/NC(=O)C(N)=O)cc1C | > 100 | > 100 | > 100 | > 100 | > 100 | > 100 | > 100 |  |  |  |  |  |  | 
CN(C)c1ccc2c(c1)CN1C(=O)c3ccccc3C1=N2 | > 100 |  | > 100 | > 100 | > 100 | > 100 | > 100 | > 100 | > 100 | > 100 | > 100 | > 100 | > 100 | 
COc1ccc(C2=Nc3ccccc3SC(C)C2)cc1 (stereo not drawn) | > 100 | 83.3 | > 100 | > 100 | > 100 | > 100 |  |  |  |  |  |  |  | 
CC(=O)[CH-]C(=O)c1ccccc1.CC(=O)[CH-]C(=O)c1ccccc1.COc1cccc([O-])c1[O-].[Ti+4] | 98.2 | > 100 | > 100 | > 100 | 62.4 | > 100 |  | 20.3 | 52 | 42.4 |  | 24.8 | 49.1 | 31.6
N#CCCN(CCC#N)C(=O)c1cccc(C(=O)N(CCC#N)CCC#N)c1 | > 73.3 | > 100 | > 64.8 | > 69.1 | > 100 | > 58.3 | > 68.4 |  |  |  |  |  |  | 
CNC(=S)N/N=C1\CC(c2ccccc2)Oc2ccccc21 (stereo not drawn) |  | > 100 | > 100 | > 100 | > 100 | > 100 | > 100 |  |  |  |  |  |  | 
COc1cc(=O)oc(/C=C/C=O)c1C | 83.9 | > 100 |  | 81.1 |  | 20.7 | 7.6 |  |  |  |  |  |  | 
C[C@@H](C1CCC2C3C(=CC(=O)[C@@]21C)[C@H](C)[C@]1(CCC(=O)O1)C1OC31)[C@H]1C[C@]2(C)O[C@@](C)(O1)OC2(C)C (stereo partly drawn) | > 100 | > 100 | > 100 | > 100 |  | > 100 |  |  |  |  |  |  |  | 
Cc1c(C(=O)CC(=O)C(=O)Nc2c(C(C)C)cccc2C(C)C)[n+](=O)c2ccccc2n1[O-] | 6.91 | 31.1 | 7.02 | 7.38 | 28.4 | 12.2 |  |  |  |  |  |  |  | 
